Usually IC50 stands for the concentration that gives 50% inhibition. A high value points to weaker potency.

For twelve compounds, IC50 results are on record in US20140058103A1, “Inhibitors of PI3K-Delta and Methods of Their Use and Manufacture” (Exelixis, Inc., priority 2010, published 2014).

This assay has as its target PI3K delta (Homo sapiens, UniProt O00329). In words: Luciferase-coupled chemiluminescence kinase assay (ATP consumption, KinaseGlo). In kind it is biochemical. In a few lines:
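ATP consumption measured by KinaseGlo luciferase chemiluminescence after a 2 h reaction at ambient temperature, with ATP at or below the kinase KM. Ten inhibitor concentrations per curve; IC50 from four-parameter nonlinear regression.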

Some results are limits rather than exact numbers.

Sequence of PI3K delta (O00329 whole entry): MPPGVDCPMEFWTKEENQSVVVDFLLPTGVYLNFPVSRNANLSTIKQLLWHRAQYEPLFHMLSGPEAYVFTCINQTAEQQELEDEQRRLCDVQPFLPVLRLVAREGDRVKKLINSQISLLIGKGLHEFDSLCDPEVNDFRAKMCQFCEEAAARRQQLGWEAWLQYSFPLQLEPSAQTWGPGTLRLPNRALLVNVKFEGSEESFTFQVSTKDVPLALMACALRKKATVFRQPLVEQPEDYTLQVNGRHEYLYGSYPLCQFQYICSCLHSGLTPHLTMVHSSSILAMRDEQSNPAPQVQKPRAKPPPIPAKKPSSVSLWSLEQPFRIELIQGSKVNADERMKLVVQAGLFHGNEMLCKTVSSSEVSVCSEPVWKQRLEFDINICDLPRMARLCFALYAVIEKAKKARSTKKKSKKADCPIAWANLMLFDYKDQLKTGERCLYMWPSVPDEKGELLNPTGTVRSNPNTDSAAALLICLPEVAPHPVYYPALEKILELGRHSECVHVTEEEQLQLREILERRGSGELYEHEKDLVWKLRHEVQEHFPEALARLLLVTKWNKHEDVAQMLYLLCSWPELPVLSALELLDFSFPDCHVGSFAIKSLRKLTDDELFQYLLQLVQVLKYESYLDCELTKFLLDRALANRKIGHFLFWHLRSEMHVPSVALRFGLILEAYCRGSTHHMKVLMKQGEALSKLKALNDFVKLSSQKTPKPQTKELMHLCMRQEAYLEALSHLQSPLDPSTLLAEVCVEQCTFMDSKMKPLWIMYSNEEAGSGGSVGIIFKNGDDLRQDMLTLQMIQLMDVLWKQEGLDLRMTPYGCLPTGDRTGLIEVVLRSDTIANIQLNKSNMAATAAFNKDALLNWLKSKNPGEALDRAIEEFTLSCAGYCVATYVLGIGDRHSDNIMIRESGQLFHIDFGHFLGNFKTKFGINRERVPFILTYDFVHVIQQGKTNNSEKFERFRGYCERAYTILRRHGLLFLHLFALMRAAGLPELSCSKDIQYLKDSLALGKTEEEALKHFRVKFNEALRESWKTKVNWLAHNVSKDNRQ
Sequence of PI3K delta (P27986 whole entry partner): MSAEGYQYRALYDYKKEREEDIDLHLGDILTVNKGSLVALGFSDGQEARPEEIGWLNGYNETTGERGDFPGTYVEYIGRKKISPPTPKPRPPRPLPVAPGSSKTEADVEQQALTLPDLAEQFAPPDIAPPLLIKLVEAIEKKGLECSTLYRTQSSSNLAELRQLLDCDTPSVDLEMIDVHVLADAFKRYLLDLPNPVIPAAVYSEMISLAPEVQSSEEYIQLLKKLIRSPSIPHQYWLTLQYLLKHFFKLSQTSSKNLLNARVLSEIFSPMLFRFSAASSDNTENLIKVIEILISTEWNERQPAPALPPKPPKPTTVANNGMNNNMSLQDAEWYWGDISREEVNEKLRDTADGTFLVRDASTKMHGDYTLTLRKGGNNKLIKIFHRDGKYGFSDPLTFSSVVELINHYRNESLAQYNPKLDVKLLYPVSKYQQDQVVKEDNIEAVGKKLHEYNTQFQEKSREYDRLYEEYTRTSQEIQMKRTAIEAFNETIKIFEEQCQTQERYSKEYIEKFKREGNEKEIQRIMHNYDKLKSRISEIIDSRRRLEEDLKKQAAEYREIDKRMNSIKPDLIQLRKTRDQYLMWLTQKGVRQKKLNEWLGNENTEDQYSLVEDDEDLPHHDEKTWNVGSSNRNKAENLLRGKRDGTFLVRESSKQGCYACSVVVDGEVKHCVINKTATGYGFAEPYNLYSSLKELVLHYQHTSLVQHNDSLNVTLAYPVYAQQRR

`COc1ncc(-c2nc3c(N4CCC(n5c(=O)[nH]c6ccccc65)CC4)ncnc3n2C)cn1` [Compound 310, 1-(1-{9-methyl-8-[2-(methyloxy)pyrimidin-5-yl]-9H-purin-6-yl}piperidin-4-yl)-1,3-dihydro-2H-benzimidazol-2-one] yielded an IC50 of less than 50 nM.

Compound `CN(C)c1ncc(-c2nc3c(N4CCC(n5c(=O)[nH]c6ccccc65)CC4)ncnc3n2C)cn1` [Compound 311, 1-(1-{8-[2-(dimethylamino)pyrimidin-5-yl]-9-methyl-9H-purin-6-yl}piperidin-4-yl)-1,3-dihydro-2H-benzimidazol-2-one] came in with an IC50 of less than 50 nM.

Take `CCn1c(-c2ccnnc2)nc2c(N3CCC(n4c(=O)[nH]c5ccccc54)CC3)ncnc21` [Compound 312, 1-[1-(9-ethyl-8-pyridazin-4-yl-9H-purin-6-yl)piperidin-4-yl]-1,3-dihydro-2H-benzimidazol-2-one]: the IC50 was less than 50 nM.

`Cn1c(-c2ccnnc2)nc2c(N3CCC4(CC3)C(=O)Nc3ccccc34)ncnc21` [Compound 313, 1′-(9-methyl-8-pyridazin-4-yl-9H-purin-6-yl)spiro[indole-3,4′-piperidin]-2(1H)-one] showed an IC50 of 50 to 250 nM.

`CCn1c(-c2ccc(C(F)(F)F)nc2)nc2c(N3CCC(n4c(=O)[nH]c5ccccc54)CC3)ncnc21` [Compound 314, 1-(1-{9-ethyl-8-[6-(trifluoromethyl)pyridin-3-yl]-9H-purin-6-yl}piperidin-4-yl)-1,3-dihydro-2H-benzimidazol-2-one] yielded an IC50 of less than 50 nM.

Consider `Cn1c(-c2ccc(C(F)(F)F)nc2)nc2c(N3CCC(n4c(=O)[nH]c5ncccc54)CC3)ncnc21` [Compound 315, 1-(1-{9-methyl-8-[6-(trifluoromethyl)pyridin-3-yl]-9H-purin-6-yl}piperidin-4-yl)-1,3-dihydro-2H-imidazo[4,5-b]pyridin-2-one], for which the IC50 was less than 50 nM.

`CCn1c(-c2ccnnc2)nc2c(N3CCC4(CC3)C(=O)Nc3ccccc34)ncnc21` [Compound 316, 1′-(9-ethyl-8-pyridazin-4-yl-9H-purin-6-yl)spiro[indole-3,4′-piperidin]-2(1H)-one] yielded an IC50 of less than 50 nM.

Regarding `COC(=O)[C@H]1CN(c2ncnc3c2nc(-c2cnn(C)c2)n3C)CC[C@H]1n1c(=O)[nH]c2ccccc21` [Compound 317, methyl (3S,4R)-1-[9-methyl-8-(1-methyl-1H-pyrazol-4-yl)-9H-purin-6-yl]-4-(2-oxo-2,3-dihydro-1H-benzimidazol-1-yl)piperidine-3-carboxylate], the IC50 was 500 to 1500 nM.

Compound `CCn1c(C(=O)NCC(F)(F)F)nc2c(N3CCC(n4c(=O)[nH]c5ncccc54)CC3)ncnc21` [Compound 318, 9-ethyl-6-[4-(2-oxo-2,3-dihydro-1H-imidazo[4,5-b]pyridin-1-yl)piperidin-1-yl]-N-(2,2,2-trifluoroethyl)-9H-purine-8-carboxamide] registered an IC50 of less than 50 nM.

The compound `Cn1c(C(=O)NCC(F)(F)F)nc2c(N3CCC(n4c(=O)[nH]c5ncccc54)CC3)ncnc21` [Compound 319, 9-methyl-6-[4-(2-oxo-2,3-dihydro-1H-imidazo[4,5-b]pyridin-1-yl)piperidin-1-yl]-N-(2,2,2-trifluoroethyl)-9H-purine-8-carboxamide] gave an IC50 of less than 50 nM.

`CCn1c(-c2cnc(N(C)C)nc2)nc2c(N3CCC(n4c(=O)[nH]c5ccccc54)CC3)ncnc21` [Compound 320, 1-[1-{8-[2-(dimethylamino)pyrimidin-5-yl]-9-ethyl-9H-purin-6-yl)piperidin-4-yl)-1,3-dihydro-2H-benzimidazol-2-one] displayed an IC50 of less than 50 nM.

On to `CCn1c(-c2cnc(OC)nc2OC)nc2c(N3CCC(n4c(=O)[nH]c5ccccc54)CC3)ncnc21` [Compound 321, 1-(1-{8-[2,4-bis(methyloxy)pyrimidin-5-yl]-9-ethyl-9H-purin-6-yl}piperidin-4-yl)-1,3-dihydro-2H-benzimidazol-2-one], for which the IC50 was 500 to 1500 nM.
